Test results taken from publication PMC6547740, “Potent and specific MTH1 inhibitors targeting gastric cancer” (Cell Death & Disease, 2019).

What was measured:
EC9706 cells = assay: MTT cell viability, EC9706; assay type: cell-based; conditions: Homo sapiens, esophageal cancer cell line, 72 h
Procedure: (§1) The cell viability was determined by 3-(4,5-dimethylthiazol-2-yl)-2,5-diphenyltetrazolium bromide (MTT) assay, according to the manufacturer’s instructions. 1 day before treatment, cells were seeded into 96-well plates at a concentration of 2–5 × 10^3 cells per well, followed by treatment with fresh medium containing serial dilutions of candidate compounds for 48 or 72 h, 20 μL of MTT solution (5 mg/mL in PBS) was then added to each well. After treatment, the plates were incubated at 37 °C for another 4 h. Subsequently, the MTT solution was removed and 150 μL of DMSO was added to each well for 10 min, and then the plates were shaken to dissolve the dark blue crystal (formazan), the absorbance was detected at 570 nm using a BioTek microplate reader. The data were analyzed using SPSS 20 software.

MGC-803 cells [1] = assay: Colony formation assay, MGC-803; assay type: cell-based, human; conditions: MGC-803, 7 days treatment, compared with DMSO or MI-929
Procedure: The day before treatment, cells were seeded into six-well plates at a concentration of 1 × 10^3 cells per well, and then the media were replaced with fresh media containing serial concentrations of candidate compounds. After 7 days of treatment, the cells were fixed with 75% ethanol, stained with 0.1% crystal violet solution and captured by the microscopy (Leica). After that, the crystal violet crystals were dissolved by adding methanol. The absorbance at 595 nm was measured by a BioTek micro plate reader. In the end, the data were analyzed using the GraphPad Prism 5 software.

[2] = Body weight and organ H&E staining in xenograft mice; assay type: in vivo, BALB/c nude mice; conditions: 40 mg/kg, gavage once a day for 25 days, vs oil group
Procedure: All animal experiments were conducted according to the guidelines of the Institutional Animal Care and Use Committee of Zhengzhou University. Four or five-week-old female BALB/c nude mice, weighing 18–21 g were purchased from Hunan Slack Scene of Laboratory Animal Company, LTD (Hunan, China). They received abundant food and water and were housed in a laminar flow under sterilized condition. 200 µL MGC-803 cells at the concentration of 5 × 10^7/mL were injected into the right scapular region of the mice. When most of the tumor volumes reached 100 mm^3, mice were randomly divided into oil (solvent) group and MI-743(40 mg/kg) treatment group. Then, they received gavage daily for 25 days. The body weight was weighed every 2 days and the tumor volumes were measured every 4 days. At the 25th day, the tumors were surgically removed and weighed. The tumor size was determined by vernier caliper measurements and the tumor and major organs were fixed in 4% buffered paraformaldehyde and paraffin-embedded for hematoxylin and eosin (HE) staining, immunohistochemistry (IHC) and TUNEL assay.

MTH1 = MTH1 (Homo sapiens, UniProt P36639); assay: Cellular thermal shift assay (CETSA), MTH1; assay type: binding; design: endogenous in cells; host or cells: MGC-803 (human gastric cancer cell line); conditions: MGC-803 cells, 50 µM compound, heated 10 min from 43 to 61 °C, western blot
Procedure: (§2) Cellular thermal shift assay (CETSA), also known as the target engagement assay was one-way to detect the intracellular interaction ability of compounds with its specific target. Firstly, cells were seeded into T75 culture flasks and cultured overnight. Then, the cells were treated with cell media containing 1‰ DMSO as blank control and candidate compounds for 3–5 h. Next, the cells were collected by centrifugation and resuspended by PBS, then the cells were aliquoted into 7 PCR tubes and heated using PCR instrument for 10 min from 43 to 61 °C. After that, cells were lysed using liquid nitrogen and three repeated cycles of freeze-thawing. Then, samples were centrifuged at 12,000 × g for 20 min at 4 °C. Supernatants were denatured at 100 °C for 10 min and kept at −20 °C until Western Blot analysis.

SMMC-7721 cells = assay: MTT cell viability, SMMC-7721; assay type: cell-based; conditions: Homo sapiens, liver cancer cell line, 72 h
Procedure: as §1

HGC-27 cells = assay: MTT cell viability, HGC-27; assay type: cell-based; conditions: Homo sapiens, gastric cancer cell line, 72 h
Procedure: as §1

MKN45 cells = assay: MTT cell viability, MKN45; assay type: cell-based; conditions: Homo sapiens, MKN-45, gastric cancer cell line, 72 h
Procedure: as §1

OGG1 = target: T1, OGG1 (Homo sapiens, UniProt O15527); assay: Cellular thermal shift assay (CETSA), OGG1; assay type: binding; conditions: MGC-803 cells, 50 µM compound, heated 10 min from 43 to 61 °C
T1 construct: endogenous in cells; host or cells: MGC-803 (human gastric cancer cell line)
Procedure: as §2

MCF-7 cells = assay: MTT cell viability, MCF-7; assay type: cell-based; conditions: Homo sapiens, MCF7, breast cancer cell line, 72 h
Procedure: as §1

MGC-803 cells [3] = assay: Western blot of DNA damage response markers, MGC-803; assay type: cell-based, human; conditions: MGC-803, 1-12 µM 48 h or 12 µM 12-48 h, dose and time-dependently, vs DMSO
Procedure: MGC-803, HGC-27 and GES-1 cells were seeded into 100mm^2 plastic dishes(1 × 10^5 cells/well) and incubated overnight prior to the addition of compound MI-743 at 1, 2, 4, 8 and 12 µM for 48 h or compound MI-743 at 12 µM for 12, 24, 36 and 48 h, respectively. After treatment, the cells were harvested and lysed with RIPA cell lysis buffer, containing protease inhibitor cocktail. Then, the cells were centrifuged at 12,000 × g for 20 min at 4 °C. The supernatant were collected and the concentration was determined by a Bicinchoninic Acid (BCA) Protein Assay kit, denatured at 100 °C for 10 min, separated by SDS−PAGE and transferred to 0.22 μm nitrocellulose membranes. After blocking by PBS containing 5% skim milk for 2 h at room temperature, the membranes were probed with the appropriate primary antibodies (1:500~1:1000) at 4 °C overnight, followed by the treatment of horseradish-peroxidase-conjugated secondary antibody (1:10000) at room temperature for 2 h. Subsequently, the membranes were washed with PBST, examined by enhanced chemiluminescence and the data was determined using Image J software.

ZIP177 cells = assay: MTT cell viability, ZIP177; assay type: cell-based; conditions: Homo sapiens, liver cancer cell line, 72 h
Procedure: as §1

SGC-7901 cells = assay: MTT cell viability, SGC-7901; assay type: cell-based; conditions: Homo sapiens, gastric cancer cell line, 72 h
Procedure: as §1

TE-1 cells = assay: MTT cell viability, TE-1; assay type: cell-based; conditions: Homo sapiens, 72 h
Procedure: as §1

T1 sequence (O15527 whole entry): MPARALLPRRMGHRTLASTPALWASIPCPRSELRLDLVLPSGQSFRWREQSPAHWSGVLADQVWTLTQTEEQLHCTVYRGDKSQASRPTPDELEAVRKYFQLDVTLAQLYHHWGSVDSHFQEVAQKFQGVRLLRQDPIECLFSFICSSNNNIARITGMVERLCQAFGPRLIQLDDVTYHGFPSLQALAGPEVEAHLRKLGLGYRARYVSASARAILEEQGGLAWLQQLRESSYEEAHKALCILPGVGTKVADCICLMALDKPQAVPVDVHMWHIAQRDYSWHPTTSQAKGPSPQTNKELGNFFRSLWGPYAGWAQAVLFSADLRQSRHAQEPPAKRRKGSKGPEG

incubation temperature until which MTH1 was stable (MTH1): 61 °C
IC50 (SMMC-7721 cells): 5.39 ± 0.73 µM
IC50 (MKN45 cells): 16 ± 1.18 µM
temperature at which OGG1 became unstable (OGG1): 49 °C
IC50 (MCF-7 cells): 9.67 ± 1.01 µM
IC50 (SGC-7901 cells): 10.4 ± 1.01 µM
SMILES: C#CCSc1nc(NNC(N)=S)c(C#N)c(-c2ccc3oc(=O)ccc3c2)n1 [MI-743, 2-(5-cyano-6-(2-oxo-2H-chromen-6-yl)-2-(prop-2-yn-1-ylthio)pyrimidin-4-yl)hydrazine-1-carbothioamide]
IC50 (EC9706 cells): 8.35 ± 0.92 µM
colony formation (MGC-803 cells [1]): smaller and fewer colonies
H&E staining of the liver, kidney, lung, heart and spleen [2]: no signs of toxicity
mouse body weight [2]: did not present obvious change
IC50 (HGC-27 cells): 1.14 ± 0.16 µM
expression levels of p53pS15, ATMpS1981 and p21 (MGC-803 cells [3]): significantly increased
IC50 (ZIP177 cells): 9.36 ± 0.92 µM
IC50 (TE-1 cells): 12.8 ± 1.07 µM
